Data as given in US20250069757A1, “METHOD OF PREDICTING ADAS-COG SCORE” (WisTa Laboratories Ltd., priority 2021, published 2025).

How the values were obtained:
Alzheimer's disease [1] = assay: phase III clinical trials (TRx-237-005 and TRx-237-015) for Alzheimer's disease; format: in vivo, patients; settings: 8, 150, 200 or 250 mg/day; both trials
Description: Data from a phase III clinical trials (TRx-237-005 and TRx-237-015) for Alzheimer's disease was obtained. These clinical trials involved 1162 patients. Before the trials began, each patient's baseline measurements were collected, which included the patient's sex, age, baseline ADAS-Cog and mini-mental state examination (MMSE) score.
Patients were subsequently categorised into those with ‘low’ and ‘high’ plasma levels using a threshold based on the lower limit of quantitation of the assay on Day 1. […] Additionally, each patient entered the trial either already using the standard care of therapy or not. This yielded D=4 possible combinations: “low-using”, “low-none”, “high-using” and “high-none”. The trial spanned 5 visits with 13 weeks in between each visit. At each visit t, every patient i's progressive ADAS-Cog score, Yti∈ ? , was measured and recorded.

Alzheimer's disease [2] = settings: cited from earlier work
[3] = group with 'high' plasma levels, threshold based on lower limit of quantitation of the assay on Day 1

## CN(C)c1ccc2c(c1)Sc1cc(N(C)C)ccc1N2.CS(=O)(=O)O.CS(=O)(=O)O [LMTM]
Alzheimer's disease [1]
  dose-response: lack of dose-response
Alzheimer's disease [2]; 8 mg/day range
  concentration-response relationships for steady-state plasma levels: steep concentration-response relationships
Alzheimer's disease [2]; [3]
  differences in brain atrophy: highly significant differences
  differences in cognitive decline: highly significant differences
